Experimental data reported in patent publication US20220218680A1, “TREATMENTS OF HEREDITARY ANGIOEDEMA” (KALVISTA PHARMACEUTICALS LIMITED, priority 2019, published 2022).
One block for each molecule: values may come before it.

Tests used:
[1] = target: T1, plasma kallikrein in pre-activated undiluted human plasma (Homo sapiens, UniProt P03952); test: Inhibition of enzyme activity of pre-activated undiluted plasma (compound added after DXS); assay type: biochemical; conditions: added 3.5 minutes post DXS; compound 300, 1000, 3000 nM; C1-INH 3000 nM (FIG. 3B)
T1 construct: from tissue
Experimental: The ability of the compound to inhibit the enzyme activity of pre-activated plasma was assessed by addition of the compound after DXS stimulation. Aliquots of plasma (20 μL) were mixed with a 2.5 μL solution containing […] fluorogenic substrate (H-DPro-Phe-Arg-AFC) and a 2.5 μL solution of dextran sulphate (DXS; 100 μg/mL) which acted as an activator of the plasma kallikrein-kinin pathway. Enzyme activity was immediately measured by monitoring the accumulation of fluorescence liberated from the substrate by substrate cleavage over 16 minutes. At 3.5 minutes post DXS addition 5 μl of inhibitors or water control are were added into each well. The compound was tested at concentrations of 300, 1000 and 3000 nM. C1-INH at a concentration of 3000 nM and vehicle controls were also included.

[2] = target: PKa in DXS-activated plasma (Homo sapiens, UniProt P03952); test: Catalytic activity of PKa in dextran sulfate-activated plasma (inhibitor added before DXS); assay type: biochemical; conditions: read-out: IC50 plasma enzyme
Experimental: Catalytic activity of PKa in dextran sulfate-activated (DXS, Sigma; 10 μg/ml) plasma (1:4 diluted or undiluted, VisuCon-F control plasma, Affinity Biologicals Inc) was determined by the time-dependent hydrolysis of fluorogenic substrate.

purified PKa = purified PKa (Homo sapiens, UniProt P03952); test: Rate of formation of the enzyme-inhibitor complex (Kon); assay type: biochemical
Experimental: The rate of formation of the enzyme-inhibitor complex (Kon) was determined using purified PKa rapidly mixed with a solution containing fluorogenic substrate and a concentration range of inhibitor. The time-dependent establishment of inhibition was then used to calculate the rate of formation of the enzyme-inhibitor complex for each concentration of inhibitor. The Kon was calculated by plotting the rate of inhibition versus the inhibitor concentration. Data in Table 1 are presented in μM^−1 sec^−1.

[3] = target: T2, Human plasma kallikrein (Protogen) (Homo sapiens, UniProt P03952); test: Plasma kallikrein inhibitory activity in vitro (purified enzyme, fluorogenic substrate); assay type: biochemical; conditions: 25° C., substrate H-DPro-Phe-Arg-AFC
T2 construct: purchased Protogen
Experimental: Human plasma kallikrein (Protogen) was incubated at 25° C. with the fluorogenic substrate H-DPro-Phe-Arg-AFC and various concentrations of the test compound. Residual enzyme activity (initial rate of reaction) was determined by measuring the change in […] at 410 nm and the IC50 value for the test compound was determined.

[4] = Plasma free fraction by Rapid Equilibrium Dialysis; assay type: in vitro ADME; conditions: 5 μM in neat human plasma, dialysed 5 hrs at 37° C.
Experimental: Plasma free fraction was determined using “Rapid Equilibrium Dialysis” system (Thermo Scientific), test compounds were prepared at 5 μM in neat human plasma and dialysed against phosphate buffer for 5 hrs at 37° C. Quantification of the compound partitioned in two chambers of the dialysis device was performed via LCMS/MS. Fraction of compound unbound to plasma proteins presented as % of total.

[5] = test system: HK cleavage by PKa in undiluted plasma; test: DXS-activated cleavage of HK in undiluted plasma (immunoblot); assay type: biochemical; conditions: 300 nM PKa inhibitor, 20 min incubation with DXS
Experimental: DXS-activated cleavage of HK in undiluted plasma was performed in the absence or presence of 300 nM PKa inhibitor and quantified by SDS-PAGE gel electrophoresis, using 7.5% Criterion TGX Precast gels (Biorad). Transfer was made onto Immunobilon-FL PVDF membrane. Image analysis was done using the LICOR imaging system. Mouse monoclonal anti-HK antibody (MAB15692, R&D systems) was used for traditional immunoblotting. Data presented as % of HK remaining after 20 min incubation with DXS compared to HK levels in unactivated plasma (Table 1).

[6] = Phase 1 single ascending dose study: safety and tolerability; assay type: in vivo, human; conditions: phase I trial, healthy males, 5-600 mg oral
Text: (§1) This study was a randomized, double-blind, placebo-controlled single ascending dose (SAD) and crossover studies for food effect and capsule/tablet formulations.

[7] = test system: Factor XII (FXII) cleavage / FXIIa generation; test: Phase 1 SAD: ex vivo DXS-stimulated generation of FXIIa, Wes immunoassay; assay type: in vivo, human; conditions: 600 mg oral capsules, up to 12 hrs post-dose
Text: (§2) DXS-stimulated cleavage of plasma prekallikrein and Factor XII (FXII) were quantified by capillary-based immunoassay on the Wes System (ProteinSimple) analogously.

[8] = Phase 2 study Part 1: pharmacokinetics in HAE patients; assay type: in vivo; conditions: human, plasma, 600 mg single oral dose, n = 27, preliminary, read-out: Cmax Mean (95% CI)
Experimental: In Part 1, subjects will receive a single oral dose of 600 mg of the compound to investigate the safety, PK and PD of the compound during the intercritical period between HAE attacks.
Part 1: Blood samples for PK and PD measurements will be collected at the following timepoints: Pre-dose (0 h), 15 min, 30 min, 45 min, 1 h, 1.5 h, 2 h, 3 h, and 4 h post-dose. Vital signs (systolic blood pressure [SBP], diastolic blood pressure [DBP], pulse rate [PR], respiratory rate [RR] and body temperature) will be measured at pre-dose (0 h), 1 h, and 4 h post-dose. Samples for post-treatment safety laboratory assessments will be taken with the 4 h PK/PD samples.
Non-compartmental PK parameters will include maximum concentration in plasma (Cmax), time to reach Cmax in plasma (tmax), and area under the curve from time 0 to last sample (AUC0-t). Compartmental PK modelling will describe the PK of the compound and generate underlying Cmax, tmax, AUC, apparent clearance (CL/F), apparent volume of distribution (Vd/F) and estimated terminal elimination half-life (t½).
The PK parameters of the compound will be determined from the individual concentration versus time data using Phoenix WinNonlin. In case of a deviation from the theoretical time, the actual time of blood sample will be used in the calculation of the derived PK parameters. […]

[9] = Phase 1 single ascending dose study: plasma pharmacokinetics (LC MS/MS); assay type: in vivo, human; conditions: oral capsule, fasted, 5 mg to 600 mg
Experimental: as §1
Samples for pharmacokinetic (PK) and PD assessment were taken at repeated intervals over 48 hours.
Plasma samples used for PK assessment were analysed using a validated liquid chromatography tandem mass spectrometry (LC MS/MS) method.

[10] = test system: HK cleavage by PKa in undiluted citrated human plasma; test: Protection of HK from PKa-mediated cleavage in DXS-stimulated HAE and control plasma (WES immunoassay); assay type: biochemical
Experimental: High molecular weight kininogen (HK) cleavage in undiluted citrated human plasma was induced by contact system activation with dextran sulfate (DXS, Sigma #31395-10G; 6.25 μg/ml) on wet ice. […] HAE plasma was obtained from HAE subjects (n=6) and C1-inhibitor deficiency was confirmed by western blotting. Protection of HK from PKa mediated cleavage in DXS-stimulated whole undiluted plasma was then determined by two methods; traditional western blotting and a semi-automated capillary-based immunoassay.
Preparation of samples: Combine one part 5× fluorescent master mix with four parts of the 1:200 plasma sample. Vortex to mix. Heat the samples+fluorescent master mix and the biotinylated ladder at 95° C. for 5 minutes, vortex, and load onto the WES plate. Monoclonal anti-human HK antibody was used for this chemiluminescence-based detection method using the Wes System (ProteinSimple).
Analysis: Collect the peak area measurement obtained in the Compass software (cbz file) for the full-length HK molecular weight of the respective time-point sample with DXS-induced activation. The peak area is defined as the area calculated for the spectral peak profile for HK. To measure the plasma kallikrein inhibition by the compound, the percent full-length HK detected was calculated.

HK cleavage = test: Phase 1 SAD: ex vivo DXS-stimulated HK cleavage, capillary-based immunoassay (Wes); assay type: in vivo, human
Experimental: (§3) PD measurements were determined in dextran sulfate (DXS) stimulated undiluted plasma using a fluorogenic enzyme assay and capillary based HK cleavage immunoassay.
DXS-stimulated cleavage of HK, in undiluted plasma was quantified by capillary-based immunoassay on the Wes System (ProteinSimple) using monoclonal anti-HK antibody and chemiluminescence-based detection. Plasma kallikrein mediated HK cleavage in undiluted citrated human plasma was induced by contact system activation with DXS (6.25 μg/ml) at 4° C. in selected samples from the SAD phase.

[11] = Phase 1 multiple dose study: safety, tolerability and ECG; assay type: in vivo, human; conditions: 3 x 600 mg every 8, 4 or 2 hours, total 1800 mg, healthy adults
Experimental: This is a phase 1, double-blind, placebo-controlled, multiple-dose, multiple-cohort study to evaluate safety and tolerability of the compound as well as of the ECG effects of the compound formulated as 100 mg Film Coated Tablets in healthy adult male and female subjects.
During the study, oral doses of 600 mg of the compound as Film Coated Tablets (six 100 mg tablets) or 6 matching placebo tablets will be administered once every 8 hours (Cohort 1) every 4 hours (Cohort 2), or every 2 hours (Cohort 3 and 4) to healthy adult male and female subjects up to a total dose of 1800 mg. In Cohorts 1, 2 and 3, 6 subjects will receive the compound as 100 mg Film Coated Tablets and 2 subjects will receive the placebo for a total of 8 subjects per cohort. In Cohort 4, 12 subjects will receive the compound as 100 mg Film Coated Tablets and 6 subjects will receive the placebo for a total of 18 subjects.
A Holter monitor will be attached to each subject in order to continuously record ECGs. The monitor will be attached 1 hour before the first dose and will remain attached until after the final blood sample collection. The electrodes for the Holter monitor will be checked by a member of the clinic staff at appropriate intervals to ensure they are attached.

[12] = test system: plasma prekallikrein (PPK) cleavage; test: Phase 1 SAD: ex vivo DXS-stimulated cleavage of plasma prekallikrein, Wes immunoassay; assay type: in vivo, human; conditions: 600 mg oral capsules, up to 12 hrs post-dose
Text: as §2

Plasma Kallikrein = target: T3, Plasma Kallikrein (Homo sapiens, UniProt P03952); test: Phase 1 SAD / food effect: ex vivo PKa catalytic activity in DXS-stimulated undiluted plasma
T3 construct: PD measurements were determined in dextran sulfate (DXS) stimulated undiluted plasma using a fluorogenic enzyme assay; from tissue; host or cells: undiluted plasma of healthy male volunteers after oral dosing, stimulated ex vivo with dextran sulfate
Experimental: as §3
The time until appearance of detectable amidolytic enzyme activity in DXS-stimulated plasma (lag time) was calculated from the catalytic activity assay. The detection sensitivity of the rate of catalytic activity in plasma based on using a Spark (Tecan) fluorimeter is a fluorescence increase to reach 1ΔF unit/sec.

[13] = background, literature and labels; cited from earlier work

T3 sequence (P03952 391-638 limits assumed): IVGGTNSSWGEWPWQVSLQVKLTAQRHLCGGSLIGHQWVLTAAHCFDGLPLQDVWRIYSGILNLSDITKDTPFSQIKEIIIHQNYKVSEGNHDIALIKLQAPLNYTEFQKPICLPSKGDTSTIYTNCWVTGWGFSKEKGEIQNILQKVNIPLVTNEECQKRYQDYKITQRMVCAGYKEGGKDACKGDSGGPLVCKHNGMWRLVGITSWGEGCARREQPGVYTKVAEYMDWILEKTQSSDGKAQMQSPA
T3 sequence (P03952 20-390 partner limits assumed): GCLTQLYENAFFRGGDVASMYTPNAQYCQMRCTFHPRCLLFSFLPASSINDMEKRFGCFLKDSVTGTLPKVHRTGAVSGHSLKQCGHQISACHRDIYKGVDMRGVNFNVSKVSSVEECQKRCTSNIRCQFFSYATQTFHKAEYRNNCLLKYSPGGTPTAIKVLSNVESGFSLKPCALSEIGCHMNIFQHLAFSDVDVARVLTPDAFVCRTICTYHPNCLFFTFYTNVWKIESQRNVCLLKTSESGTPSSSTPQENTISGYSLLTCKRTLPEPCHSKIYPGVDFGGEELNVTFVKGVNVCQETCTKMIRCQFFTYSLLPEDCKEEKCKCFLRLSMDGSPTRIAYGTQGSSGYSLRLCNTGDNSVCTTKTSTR
purified PKa, sequence (P03952 391-638 limits assumed): as the sequence (P03952 391-638 limits assumed) above
purified PKa, sequence (P03952 20-390 partner limits assumed): as the sequence (P03952 20-390 partner limits assumed) above
T1 sequence (P03952 391-638 limits assumed): as the sequence (P03952 391-638 limits assumed) above
T1 sequence (P03952 20-390 partner limits assumed): as the sequence (P03952 20-390 partner limits assumed) above
T2 sequence (P03952 391-638 limits assumed): as the sequence (P03952 391-638 limits assumed) above
T2 sequence (P03952 20-390 partner limits assumed): as the sequence (P03952 20-390 partner limits assumed) above
PKa in DXS-activated plasma, sequence (P03952 391-638 limits assumed): as the sequence (P03952 391-638 limits assumed) above
PKa in DXS-activated plasma, sequence (P03952 20-390 partner limits assumed): as the sequence (P03952 20-390 partner limits assumed) above

inhibition of enzyme activity after activation of plasma [1]: slower action
IC50 [2]: 1700 nM
Kon (purified PKa): 40000 M⁻¹ s⁻¹
IC50 [3]: 50 nM
Molecule: C1-INH: C1 inhibitor (Sigma Cat #E0518), used as a therapeutic benchmark for HAE [Compound C1-INH]

fraction unbound at 5 h, 5 μM [4]: 0.25
Cmax [8]: 5910 ng/mL
plasma exposure [9]: rapid and dose-dependent plasma exposure
food effect on the pharmacodynamic (PD) profile (Plasma Kallikrein; 600 mg tablet, fed vs fasted): no significant food-effect
Molecule: COCc1nn(Cc2ccc(Cn3ccccc3=O)cc2)cc1C(=O)NCc1nccc(OC)c1F [compound of Formula A, N-[(3-fluoro-4-methoxypyridin-2-yl)methyl]-3-(methoxymethyl)-1-({4-[(2-oxopyridin-1-yl)methyl]phenyl}methyl)pyrazole-4-carboxamide]
HK protection (% of HK remaining vs unactivated plasma) [5]: 85%
serious adverse events [6]: No serious adverse events
tolerability [6]: no tolerability signals
effect on generation of FXIIa in DXS-activated plasma [7]: reduces the generation of FXIIa
protection against HK cleavage ([10]; HAE plasma stimulated with dextran sulfate): dose dependent protection against HK cleavage
protection against HK cleavage ([10]; healthy control plasma stimulated with dextran sulfate): dose dependent protection against HK cleavage
effect on HK cleavage in DXS-activated plasma (HK cleavage; 600 mg oral capsules, up to 12 hrs post-dose): reduces HK cleavage
duration of protection of HK from DXS-activated cleavage in undiluted plasma (HK cleavage; single 600 mg dose): at least 10 hr
effects on the studied ECG parameters [11]: No clinically relevant effects
serious adverse events [11]: No serious adverse events
severity of reported adverse events [11]: mild
effect on PPK cleavage in DXS-activated plasma [12]: reduces PPK cleavage
lag time (time until appearance of catalytic activity during contact system activation) (Plasma Kallikrein; 600 mg dose, tablet formulation): increases the time until appearance of catalytic activity

Molecule: N#Cc1cccc([C@@H](NCC2CC2)c2ccc(F)c(NC(=O)c3cc(C(F)(F)F)nn3-c3cccc(CN)c3)c2)c1 [Berotralstat, reference compound]
reported adverse reactions / risks [13]: more gastrointestinal adverse effects

Molecule: Ecallantide
reported adverse reactions / risks [13]: risk of anaphylactic reactions

B1: lanadelumab: recombinant fully human IgG1 kappa light chain monoclonal antibody, active substance of Takhzyro (antibody, chains of the INN, looked up, V domains shown)
VH: EVQLLESGGGLVQPGGSLRLSCAASGFTFSHYIMMWVRQAPGKGLEWVSGIYSSGGITVYADSVKGRFTISRDNSKNTLYLQMNSLRAEDTAVYYCAYRRIGVPRRDEFDIWGQGTMVTVSS
VL: DIQMTQSPSTLSASVGDRVTITCRASQSISSWLAWYQQKPGKAPKLLIYKASTLESGVPSRFSGSGSGTEFTLTISSLQPDDFATYYCQQYNTYWTFGQGTKVEIK
reported adverse reactions / risks [13]: hypersensitivity, injection site pain, injection site erythema, and injection site bruising
